From article PMC5603603, “Linoleic and palmitoleic acid block streptokinase-mediated plasminogen activation and reduce severity of invasive group A streptococcal infection” (Scientific Reports, 2017)
Read-outs that look alike come from different tables or passages of the source.

Tests used:
[1] = biological target: cluster 1 type streptokinase (Streptococcus pyogenes, UniProt P10520); format: biochemical, group A streptococcal strain A328; conditions: supernatant-based, cluster 1; for effect on plasminogen activation: concentrations up to 100 µg/ml (around 320–437 µM)
cluster 1 type streptokinase, sequence (P00747 20-810): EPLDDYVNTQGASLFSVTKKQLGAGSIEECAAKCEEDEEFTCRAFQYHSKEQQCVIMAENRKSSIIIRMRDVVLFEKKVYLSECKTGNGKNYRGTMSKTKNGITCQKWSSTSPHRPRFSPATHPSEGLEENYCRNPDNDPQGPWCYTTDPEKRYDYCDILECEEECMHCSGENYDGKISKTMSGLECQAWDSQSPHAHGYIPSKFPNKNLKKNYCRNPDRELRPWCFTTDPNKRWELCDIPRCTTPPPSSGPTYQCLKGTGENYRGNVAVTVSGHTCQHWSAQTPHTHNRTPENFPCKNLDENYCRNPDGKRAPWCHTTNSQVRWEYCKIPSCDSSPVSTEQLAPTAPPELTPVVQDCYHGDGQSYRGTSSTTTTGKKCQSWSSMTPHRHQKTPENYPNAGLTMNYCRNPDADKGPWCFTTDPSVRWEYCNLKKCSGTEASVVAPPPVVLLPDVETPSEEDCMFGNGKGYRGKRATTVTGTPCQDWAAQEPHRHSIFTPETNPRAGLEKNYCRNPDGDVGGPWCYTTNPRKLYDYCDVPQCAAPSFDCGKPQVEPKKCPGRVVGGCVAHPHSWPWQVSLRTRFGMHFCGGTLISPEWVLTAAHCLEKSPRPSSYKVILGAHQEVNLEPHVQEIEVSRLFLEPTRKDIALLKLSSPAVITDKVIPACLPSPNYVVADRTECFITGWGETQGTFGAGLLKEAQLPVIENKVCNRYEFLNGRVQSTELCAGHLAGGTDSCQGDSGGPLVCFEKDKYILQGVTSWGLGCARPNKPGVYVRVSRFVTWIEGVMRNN
cluster 1 type streptokinase, sequence (P10520 27-440): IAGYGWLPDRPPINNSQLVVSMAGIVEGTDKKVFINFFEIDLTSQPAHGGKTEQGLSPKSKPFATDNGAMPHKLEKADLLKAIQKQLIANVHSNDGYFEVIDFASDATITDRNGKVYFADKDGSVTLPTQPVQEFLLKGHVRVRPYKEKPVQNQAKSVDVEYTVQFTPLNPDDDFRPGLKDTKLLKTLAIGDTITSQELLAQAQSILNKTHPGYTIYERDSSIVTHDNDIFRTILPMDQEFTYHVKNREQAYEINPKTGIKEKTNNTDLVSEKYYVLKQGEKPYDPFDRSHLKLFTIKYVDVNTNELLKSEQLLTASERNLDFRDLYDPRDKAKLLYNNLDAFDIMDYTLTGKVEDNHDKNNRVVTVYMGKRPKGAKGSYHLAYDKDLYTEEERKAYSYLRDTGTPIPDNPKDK
Procedure: An overnight culture of the strain A328 (cluster 1 type) or A614 (cluster 2a type) was diluted 1:10 in pre-warmed THY medium and grown to an OD600 of around 0.5 at 37 °C. […] The pellet was resuspended in Tris-HCl buffer (50 mM Tris pH 7.5). Then inhibitory compounds (LA, PA, oleic, myristic, stearic, palmitic, arachidonic, arachidic, linolenic acid, TXA or EACA) were added. Stocks of TXA and EACA were prepared in PBS. Stocks of LA and PA were prepared in methanol and then diluted in PBS. Stocks of arachidic, oleic, arachidonic, myristic, palmitic, stearic and linolenic acid were prepared in 60% DMSO/PBS and then diluted in PBS. The untreated control received the same amount of PBS as in case of TXA and EACA as control or the same amount of methanol diluted in PBS as in case of LA and PA, respectively, or the same amount of DMSO diluted in PBS as in case of the other commercially available fatty acids. […] The assay was run at 37 °C. The absorption was measured at the beginning of the reaction and then every hour at 405 nm after 3 sec of shaking on a Tecan Sunrise ELISAReader using Magellan software. Each experiment was repeated three times. IC50 values were calculated using Microsoft® Excel software.

[2] = biological target: T1, cluster 2a type streptokinase (Streptococcus pyogenes, UniProt A0A288R465); experiment: biochemical; format: biochemical, group A streptococcal strain A614; conditions: for IC50: supernatant-based, cluster 2a
[3] = biological target: cluster 2b type streptokinase (Streptococcus pyogenes, UniProt P10520); parameters: species or system group A streptococcal strain A314; conditions: cell-based, cluster 2b; for effect on plasminogen activation: concentrations up to 100 µg/ml (around 320–437 µM)
Procedure: Then inhibitory compounds (LA, PA, oleic, myristic, stearic, palmitic, arachidonic, arachidic, linolenic acid, TXA or EACA) were added. Stocks of LA and PA were prepared in methanol and then diluted in PBS. Stocks of arachidic, oleic, arachidonic, myristic, palmitic, stearic and linolenic acid were prepared in 60% DMSO/PBS and then diluted in PBS. The untreated control received the same amount of PBS as in case of TXA and EACA as control or the same amount of methanol diluted in PBS as in case of LA and PA, respectively, or the same amount of DMSO diluted in PBS as in case of the other commercially available fatty acids. […] The assay was incubated at 37 °C and measured at the beginning of the reaction and then every hour at 405 nm after 3 sec of shaking on a Tecan Sunrise ELISAReader using Magellan software. Each experiment was repeated three times. IC50 values were calculated using Microsoft® Excel software.

[4] = biological target: T1, cluster 2a type streptokinase; parameters: species or system group A streptococcal strain A614; conditions: cell-based, cluster 2a
Procedure: The pellet from a mid-log phase culture of the strain A614 (cluster 2a type) or A314 (cluster 2b type) was washed twice with PBS and bacteria were adjusted to an OD600 of 1.0 in HEPES-buffer (10 mM HEPES, 150 mM NaCl, 0.01% Tween 20, pH 7.4). 90 µl of bacterial cells, plasminogen (final concentration 6.7 µg/ml per well) and fibrinogen (final concentration 1 µM per well) were pre-mixed. Then inhibitory compounds (LA, PA, oleic, myristic, stearic, palmitic, arachidonic, arachidic, linolenic acid, TXA or EACA) were added. Stocks of LA and PA were prepared in methanol and then diluted in PBS. Stocks of arachidic, oleic, arachidonic, myristic, palmitic, stearic and linolenic acid were prepared in 60% DMSO/PBS and then diluted in PBS. The untreated control received the same amount of PBS as in case of TXA and EACA as control or the same amount of methanol diluted in PBS as in case of LA and PA, respectively, or the same amount of DMSO diluted in PBS as in case of the other commercially available fatty acids. Then 50 µl of the respective supernatant (supernatant from the strain A614 if cells from A614 were used, supernatant from the strain A314 were used in case of cells from the GAS strain A314) and 3.75 µl 10 mM S-2251 (Chromogenix) were added. The assay was incubated at 37 °C and measured at the beginning of the reaction and then every hour at 405 nm after 3 sec of shaking on a Tecan Sunrise ELISAReader using Magellan software. Each experiment was repeated three times. IC50 values were calculated using Microsoft® Excel software.

[5] = read-out: inhibition of plasminogen activation

NCCCCCC(=O)O [EACA, ε-amino caproic acid, reference compound] gave an IC50 [1] greater than 100 mM, an IC50 [2] greater than 100 mM and an IC50 [3] of 100 mM. For the same compound, the IC50 [4] was greater than 100 mM.

Compound NC[C@H]1CC[C@H](C(=O)O)CC1 [TXA, tranexamic acid, reference compound] has an IC50 [1] greater than 100 mM, an IC50 [2] greater than 100 mM and an IC50 [4] of 100 mM.

In the case of CCCCC/C=C\C/C=C\C/C=C\C/C=C\CCCC(=O)O [arachidonic acid, reference compound], the “effect on plasminogen activation” value [1] is reported as “no effect” and the “effect on plasminogen activation” value [3] is reported as “no effect”.

CC/C=C\C/C=C\C/C=C\CCCCCCCC(=O)O [linolenic acid, reference compound] was tested, and the inhibition at 359 µM [2, 5] was 30% and the “effect on plasminogen activation” value [3] was “no effect”.

With CCCCCCCCCCCCCC(=O)O [myristic acid, reference compound] the “effect on plasminogen activation” value [1] was “no effect” and the “effect on plasminogen activation” value [3] was “no effect”.

In the case of CCCCCCCC/C=C\CCCCCCCC(=O)O [oleic acid], the inhibition at 354 µM [2, 5] is reported as roughly 45%, the “effect on plasminogen activation” value [3] is reported as “no effect” and the “effect on plasminogen activation” value ([4]; concentrations up to 100 µg/ml (around 320–437 µM)) is reported as “not active”.

In the case of CCCCCCCCCCCCCCCC(=O)O [palmitic acid], the “effect on plasminogen activation” value [3] is reported as “unspecific marginal inhibitory effects”.

With CCCCCCCCCCCCCCCCCC(=O)O [stearic acid] the “effect on plasminogen activation” value [3] was “unspecific marginal inhibitory effects”.
